Assay: Stability studies of succinimides 67-69 in PBS with or without glutathione, product ratio by LC-MS
Format: physicochemical
Conditions: 37° C.
Procedure: One of succinimide conjugates 67-69 (1 mg) was dissolved in DMF (400 μL) followed by the addition of buffer solution 1, 2 or 3 (800 μL). Buffer solution 1 is PBS, buffer solution 2 is PBS+1 mM glutathione (GSH, reduced) and buffer solution 3 is PBS+1 mM glutathione (oxidized). Final concentration of glutathione (through dilution with DMF) is […]. The samples were incubated at 37° C. and measured in time. Ratio of products was determined by LC-MS.

[1] = 48 h, buffer 2 (PBS+1 mM glutathione, reduced; final 0.71 mM)
[2] = 48 h, buffer 3 (PBS+1 mM glutathione, oxidized; final 0.71 mM)
[3] = 120 h, buffer 2 (PBS+1 mM glutathione, reduced; final 0.71 mM)
[4] = 120 h, buffer 3 (PBS+1 mM glutathione, oxidized; final 0.71 mM)

SMILES | Relative ratio: GS adduct (glutathione adduct formed by reverse Michael, then GSH addition) (48 h, buffer 1 (PBS)) | Relative ratio: Hydro pro (hydrolyzed succinimide) (48 h, buffer 1 (PBS)) | Relative ratio: Succinimide (starting succinimide) (48 h, buffer 1 (PBS)) | Relative ratio: GS adduct (glutathione adduct formed by reverse Michael, then GSH addition) [1] | Relative ratio: Hydro pro (hydrolyzed succinimide) [1] | Relative ratio: Succinimide (starting succinimide) [1] | Relative ratio: GS adduct (glutathione adduct formed by reverse Michael, then GSH addition) [2] | Relative ratio: Hydro pro (hydrolyzed succinimide) [2] | Relative ratio: Succinimide (starting succinimide) [2] | Relative ratio: GS adduct (glutathione adduct formed by reverse Michael, then GSH addition) [3] | Relative ratio: Hydro pro (hydrolyzed succinimide) [3] | Relative ratio: Succinimide (starting succinimide) [3] | Relative ratio: GS adduct (glutathione adduct formed by reverse Michael, then GSH addition) [4] | Relative ratio: Hydro pro (hydrolyzed succinimide) [4] | Relative ratio: Succinimide (starting succinimide) [4] | Relative ratio: GS adduct (glutathione adduct formed by reverse Michael, then GSH addition) (120 h, buffer 1 (PBS)) | Relative ratio: Hydro pro (hydrolyzed succinimide) (120 h, buffer 1 (PBS)) | Relative ratio: Succinimide (starting succinimide) (120 h, buffer 1 (PBS))
O=C(CCCN1C(=O)CC(SCC(=O)NCc2ccccc2)C1=O)NCCOCCOCCNC(=O)c1ccc2ccc3cccc4ccc1c2c34 (stereo not drawn) [Compound 67] | 0 | 43 | 57 | 41 | 18 | 41 | 31 | 12 | 57 | 52 | 38 | 3 | 59 | 28 | 9 | – | – | –
O=C(CCCN1C(=O)CC(SCCC(=O)NCc2ccccc2)C1=O)NCCOCCOCCNC(=O)c1ccc2ccc3cccc4ccc1c2c34 (stereo not drawn) [Compound 68] | 0 | 21 | 79 | 9 | 16 | 75 | 7 | 13 | 80 | 17 | 41 | 42 | 16 | 35 | 49 | 0 | 53 | 47
O=C(CCCN1C(=O)CC(SCCCC(=O)NCc2ccccc2)C1=O)NCCOCCOCCNC(=O)c1ccc2ccc3cccc4ccc1c2c34 (stereo not drawn) [Compound 69] | 0 | 25 | 75 | 6 | 14 | 79 | 4 | 11 | 85 | 12 | 39 | 49 | 10 | 33 | 57 | 0 | 63 | 37
